Tests used:
[1] = biological target: Clostridium histolycum collagenase (Hathewaya histolytica, UniProt Q46085); assay: biochemical
[2] = Anti-free radical activity (NADH/PMS superoxide, NBT reduction); assay type: biochemical; details: 1% solution in propylene glycol vs 0.1% rutin
Description: Anti-Free Radical Activity (determined according to V. Ponti, M. U. Dianzani, K. Cheeseman and T. F. Slater, Cehm--Biol interaction, 23 (1978) 281-291).
Superoxide anions are generated by the reaction of NADH (Nicotinamide Adenine Dinucleotide in a reduced form) with PMS (Phenazine Methosulphate). The superoxide anions reduce NBT (Nitro Blue Tetrazolium) to diformazan which is violet-blue in colour.
The appearance of reduced NBT is monitored over time using a spectrophotometer. The results are represented in FIG. 3a.
The anti-free radical activity of the extracts is expressed as rutin equivalent for a 50% inhibition.
Anti-Free Radical Activity Determined in vitro (V. Ponti, M. U. Dianzani, K. Cheeseman and T. F. Slater, Chem. Biol. interaction, 23, 281-291, 1978).
The anti-free radical activity of the extracts is expressed in rutin equivalent for a 50% inhibition.

[3] = Photostability under continuous xenon lamp radiation (half-life time of absorption); details: aqueous solution, compared with benzophenone 4 under the same conditions
[4] = biological target: pancreatic elastase (Sus scrofa, UniProt P00772); assay: Anti-elastase activity (MeO Suc-Ala-Ala-Pro-Val-pNa substrate)
[5] = UV light absorption spectrum; assay type: physicochemical
[6] = Solubility; assay type: physicochemical
[7] = Phototoxicity check
[8] = system: hyaluronidase; assay: Anti-hyaluronidase activity (N-acetylglucosamine liberated from hyaluronic acid); assay type: biochemical; details: Mangifera extract 1% dry extract; heparin Sigma 10 USP/ml
Method: Anti-Hyaluronidase Activity (determined according to Jose L. Reissig, Jack L. Stominger and Luis F. Leloior, 05.12.1955).
The N-acetylglucosamine liberated after 45 minutes during the reaction of the hyaluronidase with hyaluronic acid is measured using a spectrophotometer. A process for reducing the anhydrous sugars, which in acid medium are converted to furan derivatives, is used; the said sugars react with para-dimethylaminobenzaldehyde to form a coloured complex.
The activity is expressed in μg of N-acetylglucosamine formed per minute.
The anti-hyaluronidase activity is expressed as a quantity of extract for obtaining 50% inhibition.
Anti-Hyaluronidase Activity Determined in vitro (Jose L. Reissig, Jack L. Strominger and Luis F. Leloir, J. Biol.--Chem. 217, 960-966, 1953).
The anti-hyaluronidase activity is expressed as quantity of extract for obtaining 50% inhibition. The results are plotted in Figure 5b.

Sequence of Clostridium histolycum collagenase (Q46085 41-1021 limits assumed): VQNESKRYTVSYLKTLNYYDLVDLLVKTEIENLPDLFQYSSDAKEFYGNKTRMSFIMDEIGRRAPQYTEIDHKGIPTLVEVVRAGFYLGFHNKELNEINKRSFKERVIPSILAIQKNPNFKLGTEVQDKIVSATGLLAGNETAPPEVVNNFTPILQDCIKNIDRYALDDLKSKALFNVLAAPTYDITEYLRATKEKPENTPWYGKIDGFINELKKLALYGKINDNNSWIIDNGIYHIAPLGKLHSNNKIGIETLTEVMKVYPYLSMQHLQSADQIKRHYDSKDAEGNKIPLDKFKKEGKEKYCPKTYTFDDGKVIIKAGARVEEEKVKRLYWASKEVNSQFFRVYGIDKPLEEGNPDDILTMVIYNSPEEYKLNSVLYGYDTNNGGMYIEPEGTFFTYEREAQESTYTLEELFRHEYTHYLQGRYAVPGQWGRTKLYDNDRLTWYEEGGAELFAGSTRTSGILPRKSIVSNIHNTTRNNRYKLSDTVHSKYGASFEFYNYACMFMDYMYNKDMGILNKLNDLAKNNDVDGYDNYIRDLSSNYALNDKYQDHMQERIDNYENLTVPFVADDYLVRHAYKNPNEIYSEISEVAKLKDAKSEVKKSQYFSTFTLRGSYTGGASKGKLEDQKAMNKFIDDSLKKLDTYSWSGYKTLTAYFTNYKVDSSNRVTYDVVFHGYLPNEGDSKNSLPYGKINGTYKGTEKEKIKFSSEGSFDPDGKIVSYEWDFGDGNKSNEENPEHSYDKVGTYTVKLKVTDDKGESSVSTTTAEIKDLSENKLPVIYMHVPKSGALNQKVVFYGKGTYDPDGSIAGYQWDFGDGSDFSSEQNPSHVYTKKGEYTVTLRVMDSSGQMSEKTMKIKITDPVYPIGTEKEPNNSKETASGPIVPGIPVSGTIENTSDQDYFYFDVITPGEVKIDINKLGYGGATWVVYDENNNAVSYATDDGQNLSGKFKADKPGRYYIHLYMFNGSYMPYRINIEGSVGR
Sequence of pancreatic elastase (P00772 27-266): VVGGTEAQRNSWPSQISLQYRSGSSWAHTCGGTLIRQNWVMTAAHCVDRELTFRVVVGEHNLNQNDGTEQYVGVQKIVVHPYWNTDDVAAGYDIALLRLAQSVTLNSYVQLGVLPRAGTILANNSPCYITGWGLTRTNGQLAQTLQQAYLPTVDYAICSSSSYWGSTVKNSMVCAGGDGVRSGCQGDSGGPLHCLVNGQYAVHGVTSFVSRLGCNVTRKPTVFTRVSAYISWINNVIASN

## O=c1c2cc(O)c(O)cc2oc2cc(O)c([C@@H]3O[C@H](CO)[C@@H](O)[C@H](O)[C@H]3O)c(O)c12 [mangiferine, C-glucoside of 1,3,6,7-tetrahydroxy xanthone]
[1]
  IC50: ~118 µM
[2]
  anti-free radical activity relative to rutin reference solution: 4 times
[3]
  photostability (resistance to irradiation, half-life time): equally resistant to irradiation, with a very similar half-life time
[4]
  IC50: ~23.7 µM
[5]; UVA zone
  UV absorption maximum corresponding to the zone of UVA rays: around 360 nm
[5]; UVB zone
  UV absorption maximum corresponding to UVB rays: around 320 nm
[6]; alkaline liquids
  solubility in alkaline liquids: soluble
[6]; cold water
  solubility in cold water: very sparingly soluble
[7]
  phototoxicity: absence of phototoxicity

## heparin
[8]
  half-inhibition volume IV50 (anti-hyaluronidase): 380 µL

From patent US5824320A, “Cosmetic or pharmaceutical compositions containing, as active ingredient, mangiferine or its derivatives, in pure form or in plant extracts” (Laboratories de Biologie Vegetale Yves Rocher, priority 1994, dated 1998)
